Results from patent US10947263B2, “Cyclic dinucleotides as anticancer agents” (BRISTOL-MYERS SQUIBB COMPANY, priority 2017, dated 2021).
Like-named read-outs stand apart in the source and are kept apart here.

How the values were obtained:
[1] = tested on: STING / IRF pathway in THP1-Dual cells; assay: STING THP1 Reporter Assay, IRF pathway (secreted Lucia luciferase, QUANTI-Luc); assay type: cell-based; settings: 10% human plasma, 100% activation = 100 μM cGAMP, luciferase readout, read-out: THP1 Reporter Assays EC50 IRF3
Source text: (§1) THP1-Dual™ cells were derived from the human THP-1 monocyte cell line by stable integration of two inducible reporter constructs. To this end, THP1-Dual™ cells allow the simultaneous study of the […], by monitoring the activity of SEAP, and the IRF pathway by assessing the activity of a secreted luciferase (Lucia). Both reporter proteins are readily measurable in the cell culture supernatant when using QUANTI-Blue™, a SEAP detection reagent, and QUANTI-Luc™, a luciferase detection reagent.
(§2) THP1-Dual™ cells induce the activation of NF-κB in response to STING agonists. They also trigger the IRF pathway upon stimulation with STING agonists, such as cGAMP. Here, the THP-1-Dual cells were used to assess STING binders for function on the cellular level.
(§3) Serial dilutions of compounds in DMSO were added to low volume 384 well plates at 100 nl/well using an ECHO acoustic dispenser (Labcyte, model 550) to achieve final starting concentration of 100 μM in cell suspension. THP-1 Dual™ STING reporter cells (Invivogen, Dual cells cat #THPD-nfis) were added to the plates with compounds at 15,000 cells in 10 μL per well in RPMI media (Gibco, cat #11875) containing 10% human plasma in a low volume 384-well black wall clear bottom tissue culture plate (Corning, cat #3542) for SEAP assay and low volume solid white plate (Corning, cat #3826) for luciferase assay. One column of the plate was reserved for treatment with cGAMP at 100 μM for 100% activation calculation and one column for no treatment (DMSO only) for baseline activation. Plates were then incubated in 37 OC incubator at 5% CO2 for 20 hours.
(§4) In the SEAP assay, […] 2× QuantiBlue (Invivogen, cat #Rep-qb2) is added to 384 well black plates seeded with THP1 cells and incubated at 37° C. for 2 hours. Plates were read on the Envision (Perkin Elmer) at 620 nm wavelength (OD620). In the luciferase assay, 5 μl of Quantiluc (Invivogen, Rep-qlc2) is added to white 384 well plates seeded with THP1 cells and read at 5 minutes on the Envision (Perkin Elmer) using a luminescence protocol (RLU). For both cell lines, 100% activation was determined by value (RLU) of THP-1 Dual STING cells stimulated with 100 μM cGAMP (Invivogen, cat #TLRL-NACGA23-5).

[2] = tested on: STING / NF-κB pathway in THP1-Dual cells; assay: STING THP1 Reporter Assay, NF-κB pathway (SEAP, QUANTI-Blue); assay type: cell-based; settings: 10% human plasma, 100% activation = 100 μM cGAMP, SEAP readout, read-out: THP1 Reporter Assays EC50 NFkB
Source text: as §1, §2, §3, §4

[3] = biological target: T1, STING WT (His-TVMV-S-hSTING(155-341)-H232R) (Homo sapiens, UniProt Q86WV6, H232R); assay: STING HTRF binding assay (time resolved FRET competition), STING WT; settings: 20 nM His-tagged STING WT cytoplasmic domain, 200 nM fluorescein-labeled cGAMP analog probe, one hour; read-out: HTRF Binding Assays IC50 WT
T1 construct: STING WT: His-TVMV-S-hSTING(155-341)-H232R
T1 sequence (Q86WV6 with tags, fused parts or gaps H232R): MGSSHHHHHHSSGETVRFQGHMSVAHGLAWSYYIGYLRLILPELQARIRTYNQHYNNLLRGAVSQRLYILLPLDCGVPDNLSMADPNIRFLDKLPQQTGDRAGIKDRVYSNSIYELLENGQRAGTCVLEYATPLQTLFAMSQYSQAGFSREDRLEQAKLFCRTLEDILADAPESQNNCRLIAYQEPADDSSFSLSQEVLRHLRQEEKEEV
Description: (§5) A time resolved FRET-based competition binding assay was used to assess test article binding to STING WT and STING AQ. His-tagged STING cytoplasmic domain (WT or AQ) at a concentration of 20 nM was incubated with 2.5 nM Tb-labeled anti-His antibody, test compound, and fluorescein-labeled cGAMP analog probe (BioLog cat. no. C195) at a concentration of 200 nM (STING WT) or 40 nM (STING AQ) in PBS containing 0.005% Tween-20 and 0.1% BSA for one hour. Fluorescence at 495 nm and 520 nm was measured using an EnVision microplate reader to quantify FRET between Tb-labeled anti-His antibody and fluorescein-labeled probe. Background was defined as the signal obtained in the absence of STING protein, and background subtracted FRET ratios were normalized to the maximum signal obtained in the absence of test compound. These values were converted to a percent inhibition. Percent inhibition was determined for test compounds at 11 concentrations. The IC50, defined as the concentration of competing test compound needed to reduce specific binding of the probe by 50%, was calculated using the 4 parameter logistic equation to fit the data
STING WT: His-TVMV-S-hSTING(155-341)-H232R • […] […] […] […] LRQEEKEEV (SEQ ID NO:1)

[4] = biological target: T2, STING AQ (His-TVMV-S-hSTING(155-341)-G230A-R293Q) (Homo sapiens, UniProt Q86WV6, G230A/H232R/R293Q); assay: STING HTRF binding assay (time resolved FRET competition), STING AQ; settings: 20 nM His-tagged STING AQ cytoplasmic domain, 40 nM fluorescein-labeled cGAMP analog probe, one hour; read-out: HTRF Binding Assays IC50 AQ
T2 construct: STING AQ: His-TVMV-S-hSTING(155-341)-G230A-R293Q
T2 sequence (Q86WV6 with tags, fused parts or gaps G230A/H232R/R293Q): as the sequence (Q86WV6 with tags, fused parts or gaps H232R) above, with G99A, R162Q counted along it
Description: as §5
STING AQ: His-TVMV-S-hSTING(155-341)-G230A-R293Q • […] […] […] […] LRQEEKEEV (SEQ ID NO:2)

Compound | EC50 ([1]; Homo sapiens, THP1-Dual, 20 h) [nM] | EC50 ([2]; Homo sapiens, THP1-Dual, 20 h) [nM] | IC50 [3] [nM] | IC50 [4] [nM] | EC50 ([1]; 20 hours) [nM] | EC50 ([2]; 20 hours) [nM]
Nc1ncnc2c1ncn2[C@@H]1O[C@@H]2COP(=O)(O)O[C@@H]3[C@H](O)[C@@H](COP(=O)(S)O[C@H]2[C@H]1O)O[C@H]3n1nnc2c([N+](=O)[O-])cccc21 (stereo partly drawn) [Example 18-1, (1R,6R,8R,9R,10S,15R,17R,18R)-8-(6-amino-9H-purin-9-yl)-3,9,18-trihydroxy-17-(4-nitro-1H-1,2,3-benzotriazol-1-yl)-12-sulfanyl-2,4,7,11,13,16-hexaoxa-3λ^5,12λ^5-diphosphatricyclo[13.2.1.0^6,10]octadecane-3,12-dione] | > 100000 | > 100000 | > 100000 | 66900 |  | 
Nc1ncnc2c1ncn2[C@@H]1O[C@@H]2COP(=O)(O)O[C@@H]3[C@H](O)[C@@H](COP(=O)(O)O[C@H]2[C@H]1O)O[C@H]3n1nnc2c([N+](=O)[O-])cccc21 [Example 2, (1R,6R,8R,9R,10S,15R,17R, 18R)-8-(6-amino-9H-purin-9-yl)-3,9,12,18-tetrahydroxy-17-(4-nitro-1H-1,2,3-benzo-triazol-1-yl)-2,4,7,11,13,16-hexaoxa-3λ^5,12λ^5-diphospha-tricyclo[13.2.1.0^6,^10]octa-decane-3,12-dione] | 53000 | 80000 | 160 | 5 |  | 
Nc1ncnc2c1ncn2[C@@H]1O[C@@H]2COP(=O)(O)O[C@@H]3[C@H](O)[C@@H](COP(=O)(S)O[C@H]2[C@H]1F)O[C@H]3n1nnc2c([N+](=O)[O-])cccc21 (stereo partly drawn) [Example 19-1, (1R,6R,8R,9R,10R,15R,17R, 18R)-8-(6-amino-9H-purin-9-yl)-9-fluoro-3,12,18-trihydroxy-17-(4-nitro-1H-1,2,3-benzotriazol-1-yl)-12-sulfanylidene-2,4,7,11,13, 16-hexaoxa-3λ^5,12λ^5-diphos-phatricyclo[13.2.1.0^6,10]octa-decan-3-one] | > 100000 | > 100000 | 4660 | 650 |  | 
Nc1ncnc2c1ncn2[C@@H]1O[C@@H]2COP(=O)(O)O[C@@H]3[C@H](O)[C@@H](COP(=O)(O)O[C@H]2[C@H]1O)O[C@H]3n1nnc2c(N)cccc21 [Example 21, (1R,6R,8R,9R,10S,15R,17R,18R)-17-(4-amino-1H-1,2,3-benzotriazol-1-yl)-8-(6-amino-9H-purin-9-yl)-3,9,12,18-tetrahydroxy-2,4,7,11,13,16-hexaoxa-3λ^5,12λ^5-diphosphatricyclo[13.2.1.0^6,10]octadecane-3,12-dione] | > 100000 | > 100000 | 1700 |  |  | 
NC(=O)c1cccc2c1nnn2[C@@H]1O[C@@H]2COP(=O)(O)O[C@H]3[C@@H](F)[C@H](n4cnc5c4ncn4ccnc54)O[C@@H]3COP(=O)(S)O[C@@H]1[C@@H]2F (single isomer, unassigned) [Example 16-2] |  |  | 210 | 10 | 12700 | 73900
C=C1[C@H]2OP(=O)(S)OC[C@H]3O[C@@H](n4cnc5c(N)ncnc54)[C@H](F)[C@@H]3OP(=O)(S)OC[C@H]1O[C@H]2n1nnc2c(C(N)=O)cccc21 (single isomer, unassigned) [Example 22-2] |  |  | 70 | 10 | 3200 | 10000
Nc1ncnc2c1ncn2[C@@H]1O[C@@H]2COP(=O)(S)O[C@@H]3[C@H](O)[C@@H](COP(=O)(O)O[C@H]2[C@H]1F)O[C@H]3n1nnc2c([N+](=O)[O-])cccc21 (single isomer, unassigned) [Example 5-2] |  |  |  | 10 | 5600 | 13000

Further molecules by falling IC50 [3], results first:

EC50 ([1]; Homo sapiens, THP1-Dual, 20 h) [nM] | EC50 ([2]; Homo sapiens, THP1-Dual, 20 h) [nM] | IC50 [3] [nM] | IC50 [4] [nM] | EC50 ([1]; 20 hours) [nM] | EC50 ([2]; 20 hours) [nM] | Compound
3500 | 6700 | 30 | 10 |  |  | NC(=O)c1cccc2c1nnn2[C@@H]1O[C@@H]2COP(=O)(O)O[C@H]3[C@@H](F)[C@H](n4cnc5c(N)ncnc54)O[C@@H]3COP(=O)(O)O[C@@H]1[C@@H]2F [Example 3, 1-[(1S,6R,8R,9R,10R,15R, 17R,18R)-8-(6-amino-9H-purin-9-yl)-9,18-difluoro-3,12-dihydroxy-3,12-dioxo-2,4,7,11,13,16-hexaoxa-3λ^5,12λ^5-diphosphatricyclo [13.2.1.0^6,^10]octadecan-17-yl]-1H-1,2,3-benzotriazole-4-carboxamide]
 |  | 20 | 4 | 800 | 2200 | Nc1ncnc2c1ncn2[C@@H]1O[C@@H]2COP(=O)(S)O[C@@H]3[C@H](O)[C@@H](COP(=O)(S)O[C@H]2[C@H]1F)O[C@H]3n1nnc2c(C(F)(F)F)cccc21 (single isomer, unassigned) [Example 9-1]
 |  | 20 | 10 | 1400 | 4100 | NC(=O)c1cccc2c1nnn2[C@@H]1O[C@@H]2COP(=O)(O)O[C@H]3[C@@H](F)[C@H](n4cnc5c(N)ncnc54)O[C@@H]3COP(=O)(S)O[C@@H]1[C@@H]2F (single isomer, unassigned) [Example 6-1]
 |  | 10 | 2 | 700 | 1700 | NC(=O)c1cccc2c1nnn2[C@@H]1O[C@@H]2COP(=O)(O)O[C@H]3[C@@H](F)[C@H](n4cnc5c(N)ncnc54)O[C@@H]3COP(=O)(S)O[C@@H]1[C@@H]2O (single isomer, unassigned) [Example 4-2]
 |  | 10 | 2 | 1200 | 2100 | Nc1ncnc2c1ncn2[C@@H]1O[C@@H]2COP(=O)(S)O[C@@H]3[C@H](F)[C@@H](COP(=O)(S)O[C@H]2[C@H]1F)O[C@H]3n1nnc2c([N+](=O)[O-])cccc21 (single isomer, unassigned) [Example 11-1]
2300 | 5100 | 10 | 10 |  |  | C=C1[C@H]2OP(=O)(S)OC[C@H]3O[C@@H](n4cnc5c(N)ncnc54)[C@H](F)[C@@H]3OP(=O)(S)OC[C@H]1O[C@H]2n1nnc2c(C(N)=O)cccc21 (single isomer, unassigned) [Example 22-1]
 |  | 10 | 10 | 1000 | 2400 | NC(=O)c1cccc2c1nnn2[C@@H]1O[C@@H]2COP(=O)(S)O[C@H]3[C@@H](F)[C@H](n4cnc5c(N)ncnc54)O[C@@H]3COP(=O)(S)O[C@@H]1[C@@H]2O (single isomer, unassigned) [Example 8-1]
 |  | 10 | 3 | 130 | 300 | Nc1ncnc2c1ncn2[C@@H]1O[C@@H]2COP(=O)(S)O[C@@H]3[C@H](F)[C@@H](COP(=O)(S)O[C@H]2[C@H]1F)O[C@H]3n1nnc2c([N+](=O)[O-])cccc21 (single isomer, unassigned) [Example 11-2]
